Literature values in US8431724B2, “Iejimalid analoga and uses thereof” (Studiengesellschaft Kohle mbH, priority 2007, dated 2013).

How the values were obtained:
P388 leukemia = details: Kobayashi's report
[1] = tested on: panel of 60 standard human cancer cell lines; details: NCI dataset 2005

Question: With CO[C@@H]1/C=C(C)/C=C/[C@@H](C)/C=C/C(=O)O[C@H](/C(C)=C/C=C(\C)CNC(=O)[C@H](COS(=O)(=O)[O-])NC=O)[C@@H](C)/C=C/C=C/[C@@H](OC)CC/C=C(C)\C=C\C1.[Na+] [compound 3, Iejimalide C] as the compound, how does the “in vivo activity against P388 leukemia” value (P388 leukemia) read?
Answer: The value was “potent in vivo activity”.

Question: For CO[C@@H]1/C=C(C)/C=C/[C@@H](C)/C=C(\C)C(=O)O[C@H](/C(C)=C/C=C(\C)CNC(=O)[C@H](COS(=O)(=O)[O-])NC=O)[C@@H](C)/C=C/C=C/[C@@H](OC)CC/C=C(C)\C=C\C1.[Na+] [compound 4, Iejimalide D], which “in vivo activity against P388 leukemia” value (P388 leukemia) is on record?
Answer: Its value is “potent in vivo activity”.

Question: With Iejimalide A as the compound, how does the GI50 [1] read?
Answer: The GI50 was “low nanomolar range”.

Question: And the TGI [1]?
Answer: Its TGI is “low nanomolar range”.
